Paper PMC11877286, “Discovery of novel theophylline derivatives bearing tetrazole scaffold for the treatment of Alzheimer's disease” (RSC Advances, 2025)

Key:
BACE1 = target: T1, BACE1 (Homo sapiens, UniProt P56817); experiment: BACE1 Inhibitor Screening Kit (FRET substrate); type: biochemical; conditions: 200 μM compound
T1 construct: purchased Beyotime Biotech
Protocol: Briefly, BACE1 was incubated with various concentrations of compounds for 5 min at 37 °C in a black 96-well plate, followed by adding a specific fluorescence resonance energy transfer (FRET) substrate into the reaction mixture. […] The inhibitory percentage of BACE1 activity was calculated as following: I(%) = (ΔFIcontrol − ΔFIcompound) × 100/ΔFIcontrol, in which ΔFI denotes the change of fluorescent intensity per min. The inhibitory activity of compounds was initially screened at a fixed concentration of 200 μM.

AChE = target: T2, AChE (Homo sapiens, UniProt P22303); experiment: biochemical; conditions: five concentrations 256 μM to 16 μM, triplicate, pH 8.0 buffer
T2 construct: purchased Sigma-Aldrich
T2 sequence (P22303 32-614): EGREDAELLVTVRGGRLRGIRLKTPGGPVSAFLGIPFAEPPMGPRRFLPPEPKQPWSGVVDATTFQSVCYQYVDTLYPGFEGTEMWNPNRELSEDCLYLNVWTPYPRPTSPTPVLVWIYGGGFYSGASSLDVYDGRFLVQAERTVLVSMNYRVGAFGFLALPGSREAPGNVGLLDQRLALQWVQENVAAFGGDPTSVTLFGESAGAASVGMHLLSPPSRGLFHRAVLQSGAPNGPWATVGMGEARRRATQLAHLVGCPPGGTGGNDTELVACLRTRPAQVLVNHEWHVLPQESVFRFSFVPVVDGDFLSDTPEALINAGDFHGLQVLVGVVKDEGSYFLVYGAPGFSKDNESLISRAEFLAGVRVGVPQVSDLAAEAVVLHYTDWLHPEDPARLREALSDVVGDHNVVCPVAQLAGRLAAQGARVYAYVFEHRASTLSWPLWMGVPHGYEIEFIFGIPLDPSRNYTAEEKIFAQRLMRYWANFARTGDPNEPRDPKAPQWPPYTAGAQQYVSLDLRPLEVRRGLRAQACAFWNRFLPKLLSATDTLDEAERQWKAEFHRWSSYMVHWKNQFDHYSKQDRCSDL
Protocol: AChE inhibition was assessed on a Varioskan Lux 96-well plate reader. […] The IC50 values were determined using TableCurve 2Dv4 software.

T1 sequence (P56817 46-501, species assumed): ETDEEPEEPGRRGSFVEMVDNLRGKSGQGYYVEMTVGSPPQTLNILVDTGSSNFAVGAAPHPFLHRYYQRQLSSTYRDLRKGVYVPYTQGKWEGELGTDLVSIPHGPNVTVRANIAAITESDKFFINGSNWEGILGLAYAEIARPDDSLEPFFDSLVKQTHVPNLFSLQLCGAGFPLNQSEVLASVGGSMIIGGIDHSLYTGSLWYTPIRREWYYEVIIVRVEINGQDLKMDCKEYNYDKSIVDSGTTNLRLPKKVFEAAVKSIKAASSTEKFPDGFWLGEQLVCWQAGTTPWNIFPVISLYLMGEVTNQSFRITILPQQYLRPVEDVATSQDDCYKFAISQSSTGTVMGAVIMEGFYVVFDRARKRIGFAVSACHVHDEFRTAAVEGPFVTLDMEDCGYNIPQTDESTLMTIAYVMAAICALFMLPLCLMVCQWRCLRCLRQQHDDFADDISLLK

SMILES	inhibition at 200 µM (BACE1) [%]	IC50 (AChE) [µM]
Cn1c(=O)c2c(ncn2Cc2nnn(CCCCCC(=O)Oc3ccccc3)n2)n(C)c1=O [Compound 18]	0.07 ± 3.57	94.4 ± 8.27
Cn1c(=O)c2c(ncn2Cc2nnnn2CCCCCCC(=O)Nc2ccc(F)c(Cl)c2)n(C)c1=O [Compound 26]	8.89 ± 0.49	55.4 ± 18.6
COc1ccc(OC(=O)CCCCCn2nnc(Cn3cnc4c3c(=O)n(C)c(=O)n4C)n2)cc1 [Compound 19]	-1.23 ± 0.35	267 ± 30.4
Cn1c(=O)c2c(ncn2Cc2nnnn2CCCCCCC(=O)Nc2ccc(Br)cc2)n(C)c1=O [Compound 25]	-0.48 ± 0.76	70.3 ± 0.1
Cn1c(=O)c2c(ncn2Cc2nnn(CCCCCC(=O)Nc3ccc(Br)cc3)n2)n(C)c1=O [Compound 15]	8.94 ± 1.45	84.1 ± 20.2
Cn1c(=O)c2c(ncn2Cc2nnn(CCCCCCC(=O)Nc3ccc(Cl)cc3)n2)n(C)c1=O [Compound 21]	12.2 ± 0.47	126 ± 22.4
Cn1c(=O)c2c(ncn2Cc2nnn(CCCCCC(=O)Nc3ccc(F)c(Cl)c3)n2)n(C)c1=O [Compound 16]	-1.54 ± 1.19	115 ± 10.6
Cn1c(=O)c2c(ncn2Cc2nnnn2CCCCCCC(=O)Nc2ccc(I)cc2F)n(C)c1=O [Compound 27]	7.69 ± 0.86	143 ± 23.1
COc1ccc(OC(=O)CCCCn2nnc(Cn3cnc4c3c(=O)n(C)c(=O)n4C)n2)cc1 [Compound 13]	1.4 ± 0.03	303 ± 34.1
Cn1c(=O)c2c(ncn2Cc2nnn(CCCCC(=O)Nc3ccccc3)n2)n(C)c1=O [Compound 11]	-0.32 ± 2.05	110 ± 17.5
COc1ccc(OC(=O)CCCCCCn2nnc(Cn3cnc4c3c(=O)n(C)c(=O)n4C)n2)cc1 [Compound 24]	0.74 ± 0.17	106 ± 25.7
Cn1c(=O)c2c(ncn2Cc2nnn(CCCCCCC(=O)Nc3cccc(Cl)c3)n2)n(C)c1=O [Compound 20]	10.7 ± 0.54	221 ± 37.7
Cn1c(=O)c2c(ncn2Cc2nnn(CCCCC(=O)Nc3ccc(I)cc3F)n2)n(C)c1=O [Compound 12]	18.2 ± 3.9	15.68 ± 0.06
Cn1c(=O)c2c(ncn2Cc2nnn(CCCCCCC(=O)Nc3ccc(Br)cc3)n2)n(C)c1=O [Compound 22]	1.56 ± 3.43	63.5 ± 2.48
Cn1c(=O)c2c(ncn2Cc2nnn(CCCCCCC(=O)Nc3ccc(F)c(Cl)c3)n2)n(C)c1=O [Compound 23]	12.6 ± 0.45	110 ± 17.2
Cn1c(=O)c2c(ncn2Cc2nnn(CCCCCC(=O)Nc3cccc(Cl)c3)n2)n(C)c1=O [Compound 14]	-2.01 ± 0.83	153 ± 45
Cn1c(=O)c2c(ncn2Cc2nnn(CCCCCC(=O)Nc3ccc(I)cc3F)n2)n(C)c1=O [Compound 17]	18.7 ± 2.26	105 ± 12.8
